Values quoted from earlier work, collected in patent US20090221469A1, “USE OF SOY KEFIR POWDER FOR REDUCING PAIN, BLOOD PRESSURE AND INFLAMMATION” (KCLM RESEARCH IN NUTRITION INC., priority 2006, published 2009).

Legend:
[1] = system: patients with neuralgia or moderate to severe nonmalignant pain; settings: treatment of neuralgia (Stacey et al., 2004)

Compound | SF-36 improvement of mean scores for bodily pain [1] [points] | half-lives [h]
NCC1(CC(=O)O)CCCCC1 [gabapentin] | 9.2 | 
isoflavones |  | 4 to 8
